This is an account of results in patent US6362191B1, “Aminometyl oxooxazolidinyl benzene derivatives” (Zeneca Ltd., priority 1997, dated 2002).

Each structure is given as a SMILES string. In brackets after ≈: the same amount, converted by molar mass.

One data set has as its system Bacillus subtilis. The experiment in a line: MIC by agar-dilution, in-vitro antibacterial test. The format is cell-based. Conditions: 10^4 CFU/spot. From the text:
(§1) The following results were obtained on a standard in-vitro test system. The activity is described in terms of the minimum inhibitory concentration (MIC) determined by the agar-dilution technique with an inoculum size of 10^4 CFU/spot.

In another data set the test system is Enterococcus faecalis. Kind of data set: MIC by agar-dilution, in-vitro antibacterial test. The format is cell-based. The conditions noted are these: agar with 5% defibrinated horse blood, 10^4 CFU/spot, 37° C., 5% carbon dioxide, 48 hours. As to the method:
(§2) The following results were obtained on a standard in-vitro test system. The activity is described in terms of the minimum inhibitory concentration (MIC) determined by the agar-dilution technique with an inoculum size of 10^4 CFU/spot. Streptococci and enterococci were tested on agar supplemented with 5% defibrinated horse blood, an inoculum of 10^4 CFU/spot and an incubation temperature of 37° C. in an atmosphere of 5% carbon dioxide for 48 hours—blood is required for the growth of some of the test organisms.

In data set [1] the test system is Streptococcus pyogenes C203. The experiment in a line: MIC by agar-dilution, in-vitro antibacterial test. In kind it is cell-based. Conditions: agar with 5% defibrinated horse blood, 10^4 CFU/spot, 37° C., 5% carbon dioxide, 48 hours. How it is done: as §2
Data set [2] has as its system Staphylococcus aureus MRQR (methicillin resistant quinoione resistant). The experiment in a line: MIC by agar-dilution, in-vitro antibacterial test. In kind it is cell-based. The conditions noted are these: type MRQR, 10^4 CFU/spot, 37° C., 24 hours. How it is done:
as §1
(§3) Staphylococci were tested on agar, using an inoculum of 10^4 CFU/spot and an incubation temperature of 37° C. for 24 hours—standard test conditions for the expression of methicillin resistance.

Data set [3] concerns Coagulase Negative Staphylococci MS (methicillin sensitive). The experiment in a line: MIC by agar-dilution, in-vitro antibacterial test. The format is cell-based. The conditions noted are these: type MS (methicillin sensitive), 10^4 CFU/spot, 37° C., 24 hours. As to the method:
as §1, §3

Data set [4] has as its system Staphylococcus aureus Novb. Res. (Novobiocin resistant). The experiment in a line: MIC by agar-dilution, in-vitro antibacterial test. The conditions noted are these: type Novb. Res. (Novobiocin resistant), 10^4 CFU/spot, 37° C., 24 hours. In kind it is cell-based. How it is done: as §1, §3
Data set [5] deals with Coagulase Negative Staphylococci MR (methicillin resistant). The experiment in a line: MIC by agar-dilution, in-vitro antibacterial test. In kind it is cell-based. The conditions noted are these: type MR (methicillin resistant), 10^4 CFU/spot, 37° C., 24 hours. As to the method: as §1, §3
The subject of data set [6] is Staphylococcus aureus Oxford. The experiment in a line: MIC by agar-dilution, in-vitro antibacterial test. In kind it is cell-based. The conditions noted are these: type Oxford, 10^4 CFU/spot, 37° C., 24 hours. As to the method: as §1, §3

`CC(=O)NC[C@H]1CN(c2ccc(C(=O)c3cnc4c5ccccc5ccn34)cc2)C(=O)O1` [Example 9, N-([(5S)-N-(4-[imidazo[2,1-a]isoquinol-3-ylcarbonyl]phenyl)-2-oxooxazolidin-5-yl]methyl)acetamide] yielded a melting point of 239 to 240 °C. `CC(=O)NC[C@H]1CN(c2ccc(C(=O)c3cnc4ccc([N+](=O)[O-])cn34)cc2)C(=O)O1` [Example 15, N-([(5S)-N-(4-[6-nitroimidazo[1,2-a]pyridin-3-ylcarbonyl]phenyl)-2-oxooxazolidin-5-yl]methyl)acetamide] showed a melting point of 223 to 225 °C.

With `CC(=O)NC[C@H]1CN(c2ccc(C(=O)c3cnc4c(OCc5ccccc5)cccn34)cc2)C(=O)O1` [Example 20, N-([(5S)-N-(4-[8-benzyloxyimidazo[1,2-a]pyridin-3-ylcarbonyl]phenyl)-2-oxooxazolidin-5-yl]methyl)acetamide], the melting point lay in the range of 193 to 195 °C. Same read-out and setting: in the case of `CC(=O)NC[C@H]1CN(c2ccc(C(=O)c3cnc4ccc(Br)cn34)cc2)C(=O)O1` [Example 8, N-([(5S)-N-(4-[6-bromoimidazo[1,2-a]pyridin-3-ylcarbonyl]phenyl)-2-oxooxazolidin-5-yl]methyl)acetamide] it was 230 to 232 °C; in that of `CC(=O)NC[C@H]1CN(c2ccc(C(=O)c3cnc4cnc(Br)cn34)cc2)C(=O)O1` [Example 43, N-([(5S)-N-(4-[6-bromoimidazo[1,2-a]pyrazin-3-ylcarbonyl]phenyl)-2-oxooxazolidin-5-yl]methyl)acetamide], 216 to 220 °C. The same measure, in the same setting: in the case of `CC(=O)NC[C@H]1CN(c2ccc(C(=O)c3cnc4c([N+](=O)[O-])cccn34)cc2)C(=O)O1` [Example 16, N-([(5S)-N-(4-[8-nitroimidazo[1,2-a]pyridin-3-ylcarbonyl]phenyl)-2-oxooxazolidin-5-yl]methyl)acetamide] it was 229 to 230 °C; in that of `CC(=O)NC[C@H]1CN(c2ccc(C(=O)c3cnc4c(Br)cc(C)cn34)cc2)C(=O)O1` [Example 19, N-([(5S)-N-(4-[8-bromo-6-methylimidazo[1,2-a]pyridin-3-ylcarbonyl]phenyl)2-oxooxazolidin-5-yl]methyl)acetamide], 221 to 223 °C; in that of `COC(=O)c1cccn2c(C(=O)c3ccc(N4C[C@H](CNC(C)=O)OC4=O)cc3)cnc12` [Example 23, N-([(5S)-N-(4-[8-methoxycarbonylimidazo[1,2-a]pyridin-3-ylcarbonyl]phenyl)-2-oxooxazolidin-5-yl]methyl)acetamide], 202 to 204 °C. Same read-out and setting: in the case of `CC(=O)NC[C@H]1CN(c2ccc(C(=O)c3cnc4ccc(F)cn34)cc2)C(=O)O1` [Example 27, N-([(5S)-N-(4-[6-fluoroimidazo[1,2-a]pyridin-3-ylcarbonyl]phenyl)-2-oxooxazolidin-5-yl]methyl)acetamide] it was 224 to 226 °C; in that of `CC(=O)NC[C@H]1CN(c2ccc(C(=O)c3cnc4ccccn34)c(F)c2)C(=O)O1` [Example 22, N-([(5S)-N-(4[imidazo[1,2-a]pyridin-3-ylcarbonyl]{3-fluorophenyl})-2-oxooxazolidin-5-yl]methyl)acetamide], 196 to 198 °C; in that of `CC(=O)NC[C@H]1CN(c2ccc(C(=O)c3cnc4cc(-c5ccccc5)ccn34)cc2)C(=O)O1` [Example 25, N-([(5S)-N-(4-[7-phenylimidazo[1,2-a]pyridin-3-ylcarbonyl]phenyl)-2-oxooxazolidin-5-yl]methyl)acetamide], 256 to 258 °C.

`CC(=O)NC[C@H]1CN(c2ccc(C(=O)c3cnc4cnccn34)cc2)C(=O)O1` [Example 45, N-([(5S)-N-(4-[imidazo[1,2-a]pyrazin-3-ylcarbonyl]phenyl)-2-oxooxazolidin-5-yl]methyl)acetamide]: the melting point is 254 to 256 °C.

On to `CC(=O)NC[C@H]1CN(c2ccc(C(=O)c3cnc4c(Cl)cc(Cl)cn34)cc2)C(=O)O1` [Example 11, N-([(5S)-N-(4-[6,8-dichloroimidazo[1,2-a]pyridin-3-ylcarbonyl]phenyl)-2-oxooxazolidin-5-yl]methyl)acetamide], for which the melting point fell in the range of 228 to 229 °C. Same read-out and setting: to `CC(=O)NC[C@H]1CN(c2ccc(C(=O)c3cnc4ccccn34)cc2)C(=O)O1` [Example 5, N-([(5S)-N-(4-[imidazo[1,2-a]pyridin-3-ylcarbonyl]phenyl)-2-oxooxazolidin-5-yl]methyl)acetamide] belongs 218 to 220 °C. Still for that read-out and setting: to `CC(=O)NC[C@H]1CN(c2ccc(C(=O)c3ccc4cnc(C)cn34)cc2)C(=O)O1` [Example 4, N-([(5S)-N-(4-[3-methylpyrrolo[1,2-a]pyrazin-6-ylcarbonyl]phenyl)-2-oxooxazolidin-5-yl]methyl)acetamide] belongs 248 to 250 °C. `CC(=O)NC[C@H]1CN(c2ccc(C(=O)c3cc(C#N)c4ccccn34)cc2)C(=O)O1` [Example 12, N-([(5S)-N-(4-[1-cyanoindolizin-3-ylcarbonyl]phenyl)-2oxooxazolidin-5-yl]methyl)acetamide] gave a melting point of 255 to 257 °C. On the same count and under the same terms, in the case of `CC(=O)NC[C@H]1CN(c2ccc(C(=O)c3ccc4ccc(C)cn34)cc2)C(=O)O1` [Example 2, N-([(5S)-N-(4-[6-methylindolizin-3-ylcarbonyl]phenyl)-2-oxooxazolidin-5-yl]methyl)acetamide] it was 237 to 239 °C.

`CC(=O)NC[C@H]1CN(c2ccc(C(=O)c3cnc4c(O)cccn34)cc2)C(=O)O1` [Example 26, N-([(5S)-N-(4-[8-hydroxyimidazo[1,2-a]pyridin-3-ylcarbonyl]phenyl)-2-oxooxazolidin-5-yl]methyl)acetamide]: the melting point was 253 to 255 °C (dec.).

`CC(=O)NC[C@H]1CN(c2ccc(C(=O)c3cnc4ccc(Cl)nn34)cc2)C(=O)O1` [Example 44, N-([(5S)-N-(4-[6-chloroimidazo[1,2-b]pyridazin-3-ylcarbonyl]phenyl)-2-oxooxazolidin-5-yl]methyl)acetamide] registered a melting point of 194 to 196 °C. Still for that read-out and setting: in the case of `CC(=O)NC[C@H]1CN(c2ccc(C(=O)c3cnc4nc(C)cc(C)n34)cc2)C(=O)O1` [Example 7, N-([(5S)-N-(4-[5,7-dimethylimidazo[1,2-a]pyrimidin-3-ylcarbonyl]phenyl)-2-oxooxazolidin-5-yl]methyl)acetamide] it was 253 to 254 °C.

In turn, `CC(=O)NC[C@H]1CN(c2ccc(C(=O)c3cnc4cc(C)ccn34)cc2)C(=O)O1` [Example 13, N-([(5S)-N-(4-[7-methylimidazo[1,2-a]pyridin-3-ylcarbonyl]phenyl)-2-oxooxazolidin-5-yl]methyl)acetamide] returned a melting point of 254 to 256 °C.

`CC(=O)NC[C@H]1CN(c2ccc(C(=O)c3cnc4ccc(Cl)cn34)cc2)C(=O)O1` [Example 14, N-([(5S)-N-(4-[6-chloroimidazo[1,2-a]pyridin-3-ylcarbonyl]phenyl)-2-oxooxazolidin-5-yl]methyl)acetamide] showed a melting point of 234 to 235 °C. Regarding `CC(=O)NC[C@H]1CN(c2ccc(C(=O)c3cnc4sccn34)cc2)C(=O)O1` [Example 10, N-([(5S)-N-(4[imidazo[2,1-b]thiazol-5-ylcarbonyl]phenyl)-2-oxooxazolidin-5-yl]methyl)acetamide], the MIC against Bacillus subtilis came to 0.125 µg/mL (≈ 0.325 µM); against Enterococcus faecalis, 0.25 µg/mL (≈ 0.65 µM); in data set [1] it was 0.03 µg/mL (≈ 0.078 µM); in [2] it was 0.5 µg/mL (≈ 1.3 µM); in data set [3], 0.06 µg/mL (≈ 0.156 µM); in data set [4] it was 0.13 µg/mL (≈ 0.338 µM). Moreover, the MIC in data set [5] and in [6] was 0.13 µg/mL (≈ 0.338 µM) in each case.

The compound `COC(=O)c1ccc2ncc(C(=O)c3ccc(N4C[C@H](CNC(C)=O)OC4=O)cc3)n2c1` [Example 24, N-([(5S)-N-(4-[6-methoxycarbonylimidazo[1,2-a]pyridin-3-ylcarbonyl]phenyl)-2-oxooxazolidin-5-yl]methyl)acetamide] gave a melting point of 231 to 233 °C.

For `CC(=O)NC[C@H]1CN(c2ccc(C(=O)c3cnc4ncccn34)cc2)C(=O)O1` [Example 6, N-([(5S)-N-(4-[imidazo[1,2-a]pyrimidin-3-ylcarbonyl]phenyl)-2-oxooxazolidin-5-yl]methyl)acetamide], the melting point was in the range of 257 to 260 °C.

Consider `CC(=O)NC[C@H]1CN(c2ccc(C(=O)c3ccc[nH]3)cc2)C(=O)O1` [Example 47, N-([(5S)-N-(4-[pyrrol-2-ylcarbonyl]phenyl)-2-oxooxazolidin-5-yl]methyl)acetamide], for which the melting point was 202 to 205 °C.
